Measurements: PMC9127186, “Molecular Basis Underlying Hepatobiliary and Renal Excretion of Phenolic Acids of Salvia miltiorrhiza Roots (Danshen)” (Frontiers in Pharmacology, 2022)

Columns and labels:
rat Oat3 = target: T1, rat Oat3 (Rattus norvegicus, UniProt Q9R1U7); experiment: Cellular transport assay, HEK-293 cells expressing rat Oat3; conditions: for K m: rat renal basolateral uptake Oat3, 5 min incubation, concentrations in Table 1; for TransportTC/TransportMC ratio (net transport ratio): 10 min
T1 sequence (Q9R1U7 1-536): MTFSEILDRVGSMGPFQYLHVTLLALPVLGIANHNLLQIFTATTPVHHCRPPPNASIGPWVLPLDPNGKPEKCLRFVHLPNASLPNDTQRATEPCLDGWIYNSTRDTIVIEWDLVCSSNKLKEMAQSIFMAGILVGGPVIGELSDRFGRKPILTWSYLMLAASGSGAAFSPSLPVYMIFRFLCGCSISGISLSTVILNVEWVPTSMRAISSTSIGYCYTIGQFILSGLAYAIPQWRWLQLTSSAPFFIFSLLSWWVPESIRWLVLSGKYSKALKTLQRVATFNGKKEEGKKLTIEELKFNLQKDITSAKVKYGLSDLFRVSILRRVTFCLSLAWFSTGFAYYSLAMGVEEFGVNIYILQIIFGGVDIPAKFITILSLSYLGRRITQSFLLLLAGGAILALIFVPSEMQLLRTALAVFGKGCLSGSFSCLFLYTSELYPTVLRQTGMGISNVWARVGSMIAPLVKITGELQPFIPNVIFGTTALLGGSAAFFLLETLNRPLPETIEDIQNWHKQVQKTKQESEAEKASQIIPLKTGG

rat Oat2 = target: T2, rat Oat2 (Rattus norvegicus, UniProt Q5RLM2); experiment: Cellular transport assay, HEK-293 cells expressing rat Oat2; conditions: for K m: rat hepatic sinusoidal uptake Oat2 (also renal apical), 5 min incubation, concentrations in Table 1; for TransportTC/TransportMC ratio (net transport ratio): 10 min
T2 sequence (Q5RLM2 1-535): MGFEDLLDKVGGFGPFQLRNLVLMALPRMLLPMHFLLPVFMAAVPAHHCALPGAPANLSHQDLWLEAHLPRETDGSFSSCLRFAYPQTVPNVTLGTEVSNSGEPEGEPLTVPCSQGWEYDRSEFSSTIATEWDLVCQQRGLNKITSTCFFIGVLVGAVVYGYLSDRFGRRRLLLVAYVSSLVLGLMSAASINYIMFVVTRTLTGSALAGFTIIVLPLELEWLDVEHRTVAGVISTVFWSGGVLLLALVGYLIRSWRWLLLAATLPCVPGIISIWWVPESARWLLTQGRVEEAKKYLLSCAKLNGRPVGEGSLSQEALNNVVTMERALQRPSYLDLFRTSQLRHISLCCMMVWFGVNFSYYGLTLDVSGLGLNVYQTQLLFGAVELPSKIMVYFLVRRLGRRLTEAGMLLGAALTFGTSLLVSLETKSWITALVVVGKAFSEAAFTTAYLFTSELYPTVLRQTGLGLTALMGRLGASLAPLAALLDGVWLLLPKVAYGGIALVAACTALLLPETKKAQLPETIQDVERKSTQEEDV

human OAT2 = target: T3, human OAT2 (Homo sapiens, UniProt Q9Y694); experiment: Cellular transport assay, HEK-293 cells expressing human OAT2; conditions: for K m: human hepatic sinusoidal uptake OAT2 (also renal basolateral), 5 min incubation, concentrations in Table 1; for TransportTC/TransportMC ratio (net transport ratio): 10 min
T3 sequence (Q9Y694 1-546 isoform Q9Y694-2): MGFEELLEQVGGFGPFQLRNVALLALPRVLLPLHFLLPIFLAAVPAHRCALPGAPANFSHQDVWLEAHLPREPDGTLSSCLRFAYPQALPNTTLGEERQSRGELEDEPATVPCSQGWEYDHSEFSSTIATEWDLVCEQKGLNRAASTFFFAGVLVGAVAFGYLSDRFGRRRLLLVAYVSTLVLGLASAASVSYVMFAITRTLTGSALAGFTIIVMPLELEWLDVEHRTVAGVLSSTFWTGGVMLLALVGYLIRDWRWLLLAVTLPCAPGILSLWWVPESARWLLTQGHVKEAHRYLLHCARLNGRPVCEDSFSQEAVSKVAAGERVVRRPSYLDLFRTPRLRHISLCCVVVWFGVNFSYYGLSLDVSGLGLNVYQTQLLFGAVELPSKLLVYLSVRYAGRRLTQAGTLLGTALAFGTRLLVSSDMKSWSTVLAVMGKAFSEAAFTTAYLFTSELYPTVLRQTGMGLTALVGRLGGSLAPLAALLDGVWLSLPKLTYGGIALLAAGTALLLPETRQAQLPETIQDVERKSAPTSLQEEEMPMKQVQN
Procedure, shortened: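 Read-out is LC/MS quantitation of Danshen compound taken up over 5 min, a window within linear uptake, by HEK-293 cells transiently expressing the transporter or carrying empty vector. Cells were used 48 h after transfection. Initial rates versus substrate concentration were fitted nonlinearly for Km and Vmax.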

OATP1B3 = target: T4, OATP1B3 (Homo sapiens, UniProt Q9NPD5); experiment: in vitro; conditions: for TransportTC/TransportMC ratio (net transport ratio): 10 min; for K m / V max: 5 min incubation, concentrations in Table 1
T4 sequence (Q9NPD5 1-702): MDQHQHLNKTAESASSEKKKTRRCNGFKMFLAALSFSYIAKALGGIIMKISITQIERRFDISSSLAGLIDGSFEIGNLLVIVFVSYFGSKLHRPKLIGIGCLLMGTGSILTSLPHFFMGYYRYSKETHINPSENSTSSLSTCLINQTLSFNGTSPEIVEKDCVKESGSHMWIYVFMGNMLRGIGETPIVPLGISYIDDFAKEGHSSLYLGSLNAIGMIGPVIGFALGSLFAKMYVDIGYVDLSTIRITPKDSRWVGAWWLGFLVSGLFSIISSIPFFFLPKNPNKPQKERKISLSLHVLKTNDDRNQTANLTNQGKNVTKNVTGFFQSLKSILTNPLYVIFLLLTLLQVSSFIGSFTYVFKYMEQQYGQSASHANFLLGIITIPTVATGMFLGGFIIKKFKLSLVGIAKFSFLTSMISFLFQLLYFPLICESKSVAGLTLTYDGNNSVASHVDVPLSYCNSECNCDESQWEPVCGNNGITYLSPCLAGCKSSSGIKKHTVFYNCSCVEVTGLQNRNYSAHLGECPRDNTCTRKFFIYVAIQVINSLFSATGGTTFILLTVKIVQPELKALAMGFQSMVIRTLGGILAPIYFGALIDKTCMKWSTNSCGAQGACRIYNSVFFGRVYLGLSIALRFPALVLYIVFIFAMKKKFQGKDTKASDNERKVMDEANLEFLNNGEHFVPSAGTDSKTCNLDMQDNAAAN

[1] = Danshen phenolic acid at 100 μM final concentration, human OATP1B3-transfected vs mock cells
[2] = Danshen phenolic acid at 100 μM final concentration, rat Oat3-transfected vs mock cells
[3] = Danshen phenolic acid at 100 μM final concentration, rat Oat2-transfected vs mock cells
[4] = Danshen phenolic acid at 100 μM final concentration, human OAT2-transfected vs mock cells
[5] = human hepatic sinusoidal uptake OATP1B3
[6] = human, HEK-293 cells expressing human OATP1B3 (vs mock cells)

Row | Compound | K m (rat Oat3) | K m (rat Oat2) [µM] | K m (human OAT2) | substrate of human OATP1B3 (OATP1B3) | substrate of rat Oat3 (rat Oat3) | substrate of rat Oat2 (rat Oat2) | substrate of human OAT2 (human OAT2) | TransportTC/TransportMC ratio (net transport ratio) (OATP1B3; [1]) | TransportTC/TransportMC ratio (net transport ratio) (rat Oat3; [2]) | TransportTC/TransportMC ratio (net transport ratio) (rat Oat2; [3]) | TransportTC/TransportMC ratio (net transport ratio) (human OAT2; [4]) | K m (OATP1B3; [5]) [µM] | V max (OATP1B3; [5]) [pmol/min/mg protein] | also measured
1 | O=C(O)C(O)Cc1ccc(O)c(O)c1 (stereo not shown) [Tanshinol, tanshinol] | 3,760 ± 907 μM | 978 ± 123 | 1,228 ± 160 μM |  |  |  |  |  |  |  |  |  |  | microsomal CLint (rat Oat3; rat, other cell line): 0.07 µL/min/mg
2 | O=C(/C=C/c1ccc(O)c(O)c1)O[C@H](Cc1ccc(O)c(O)c1)C(=O)O [Rosmarinic acid, rosmarinic acid] | 24.0 ± 4.2 µM | 119 ± 15 | 48.6 ± 4.2 µM | substrates | substrates | substrates | substrates |  |  |  |  |  |  | TransportTC/TransportMC ratio (net transport ratio) (OATP1B3; human, 100 μM): 7.28 ± 0.58; microsomal CLint (OATP1B3; human, other cell line): 0.09 µL/min/mg; TransportTC/TransportMC ratio (net transport ratio) (rat Oat3; rat, 100 μM): 4.45 ± 1.12; microsomal CLint (rat Oat3; rat, other cell line): 0.15 µL/min/mg; TransportTC/TransportMC ratio (net transport ratio) (rat Oat2; rat, 100 μM): 334 ± 18; microsomal CLint (rat Oat2; rat, other cell line): 5.2 µL/min/mg; TransportTC/TransportMC ratio (net transport ratio) (human OAT2; human, 100 μM): 716 ± 86; microsomal CLint (human OAT2; human, other cell line): 19.1 µL/min/mg
3 | O=C(O)c1ccc(O)c(O)c1 [Protocatechuic acid, protocatechuic acid] | 117 ± 27 µM | 109 ± 6 | 185 ± 24 µM |  |  | substrates | substrates | 0.75 ± 0.09 | 16.1 ± 2.8 | 163 ± 30 | 417 ± 23 |  |  | microsomal CLint (rat Oat3; rat): 0.57 µL/min/mg; microsomal CLint (rat Oat2; rat): 10.9 µL/min/mg; microsomal CLint (human OAT2; human): 20.7 µL/min/mg
4 | O=C(/C=C/c1ccc(O)c(O)c1/C=C/c1ccc(O)c(O)c1)O[C@H](Cc1ccc(O)c(O)c1)C(=O)O [Salvianolic acid A, salvianolic acid A] |  |  |  | not a substrate | not substrates | not substrates | not a substrate |  |  |  |  |  |  | TransportTC/TransportMC ratio (net transport ratio) (OATP1B3; human, 100 μM): 1.02 ± 0.31; TransportTC/TransportMC ratio (net transport ratio) (rat Oat3; rat, 100 μM): 1.09 ± 0.35; TransportTC/TransportMC ratio (net transport ratio) (rat Oat2; rat, 100 μM): 1.41 ± 0.26; TransportTC/TransportMC ratio (net transport ratio) (human OAT2; human, 100 μM): 2.25 ± 0.47
5 | O=C(O)Cc1c(/C=C/C(=O)O[C@H](Cc2ccc(O)c(O)c2)C(=O)O)ccc(O)c1O [Salvianolic acid D, salvianolic acid D] |  | 60.0 ± 7.2 | 111 ± 13 µM | substrates | not of rat Oat3 | substrates | substrates | 5.83 ± 0.49 | 1.41 ± 0.36 | 50.5 ± 10.7 | 314 ± 44 | 570 ± 79 | 98.5 ± 4.8 | microsomal CLint (OATP1B3; [6]): 0.17 µL/min/mg; microsomal CLint (rat Oat2; rat): 2.73 µL/min/mg; microsomal CLint (human OAT2; human): 24.3 µL/min/mg
6 | salvianolic acid B |  |  |  | substrates |  |  |  | 16.2 ± 0.6 | 1.12 ± 0.41 | 0.92 ± 0.22 | 1.04 ± 0.09 | 13.0 ± 1.6 | 11.0 ± 0.4 | CLint (OATP1B3; [5]): 0.85 μL/min/mg protein
7 | O=C(/C=C/c1ccc(O)c2c1[C@H](C(=O)O)[C@@H](c1ccc(O)c(O)c1)O2)O[C@H](Cc1ccc(O)c(O)c1)C(=O)O [Lithospermic acid, lithospermic acid] |  |  |  | substrates |  |  |  | 8.02 ± 0.52 | 0.94 ± 0.23 | 1.36 ± 0.33 | 1.51 ± 0.27 | 182 ± 26 | 9.59 ± 0.51 | microsomal CLint (OATP1B3; [6]): 0.05 µL/min/mg
